How the values were obtained:
[1] = xn = mol fraction of the nth substance listed; settings: 101 kPa, Liquid
[2] = 101 kPa, Liquid

O=CN1CCOCC1 [N-formylmorpholine] + c1ccccc1
[1]
Settings | mass density [kg/m3] | viscosity [mPa·s]
298.15 K, x2 = 0 | 1146.06 | 7.955
298.15 K, x2 = 0.0977 | 1124.83 | 6.078
298.15 K, x2 = 0.198 | 1101.75 | 4.597
298.15 K, x2 = 0.2987 | 1077.06 | 3.524
298.15 K, x2 = 0.4013 | 1051.67 | 2.656
298.15 K, x2 = 0.4983 | 1027.35 | 2.051
298.15 K, x2 = 0.599 | 1001.36 | 1.602
298.15 K, x2 = 0.6999 | 970.18 | 1.234
298.15 K, x2 = 0.802 | 938.33 | 0.96
298.15 K, x2 = 0.8967 | 908.12 | 0.76
303.15 K, x2 = 0 | 1141.7 | 6.877
303.15 K, x2 = 0.0977 | 1120.44 | 5.251
303.15 K, x2 = 0.198 | 1097.28 | 4.028
303.15 K, x2 = 0.2987 | 1072.53 | 3.109
303.15 K, x2 = 0.4013 | 1046.95 | 2.376
303.15 K, x2 = 0.4983 | 1022.6 | 1.858
303.15 K, x2 = 0.599 | 996.29 | 1.456
303.15 K, x2 = 0.6999 | 965.22 | 1.13
303.15 K, x2 = 0.802 | 933.24 | 0.884
303.15 K, x2 = 0.8967 | 902.85 | 0.706
313.15 K, x2 = 0 | 1132.96 | 5.214
313.15 K, x2 = 0.0977 | 1111.6 | 4.059
313.15 K, x2 = 0.198 | 1088.31 | 3.174
313.15 K, x2 = 0.2987 | 1063.41 | 2.492
313.15 K, x2 = 0.4013 | 1037.61 | 1.946
313.15 K, x2 = 0.4983 | 1013.15 | 1.538
313.15 K, x2 = 0.599 | 986.09 | 1.217
313.15 K, x2 = 0.6999 | 955.16 | 0.962
313.15 K, x2 = 0.802 | 922.97 | 0.759
313.15 K, x2 = 0.8967 | 892.39 | 0.613
323.15 K, x2 = 0 | 1124.33 | 4.08
323.15 K, x2 = 0.0977 | 1102.85 | 3.23
323.15 K, x2 = 0.198 | 1079.44 | 2.568
323.15 K, x2 = 0.2987 | 1054.39 | 2.046
323.15 K, x2 = 0.4013 | 1028.33 | 1.614
323.15 K, x2 = 0.4983 | 1003.64 | 1.296
323.15 K, x2 = 0.599 | 975.97 | 1.037
323.15 K, x2 = 0.6999 | 945.02 | 0.826
323.15 K, x2 = 0.802 | 912.7 | 0.66
323.15 K, x2 = 0.8967 | 881.97 | 0.538
333.15 K, x2 = 0 | 1115.63 | 3.284
333.15 K, x2 = 0.0977 | 1094.03 | 2.636
333.15 K, x2 = 0.198 | 1070.44 | 2.124
333.15 K, x2 = 0.2987 | 1045.28 | 1.715
333.15 K, x2 = 0.4013 | 1018.97 | 1.371
333.15 K, x2 = 0.4983 | 993.97 | 1.11
333.15 K, x2 = 0.599 | 966 | 0.898
333.15 K, x2 = 0.6999 | 934.99 | 0.721
333.15 K, x2 = 0.802 | 902.37 | 0.54
333.15 K, x2 = 0.8967 | 871.42 | 0.479
343.15 K, x2 = 0 | 1107.96 | 2.707
343.15 K, x2 = 0.0977 | 1086.23 | 2.201
343.15 K, x2 = 0.198 | 1062.45 | 1.798
343.15 K, x2 = 0.2987 | 1037.1 | 1.466
343.15 K, x2 = 0.4013 | 1010.54 | 1.183
343.15 K, x2 = 0.4983 | 985.32 | 0.966
343.15 K, x2 = 0.599 | 956.77 | 0.787
343.15 K, x2 = 0.6999 | 925.78 | 0.637
343.15 K, x2 = 0.802 | 892.86 | 0.518
343.15 K, x2 = 0.8967 | 861.54 | 0.428

c1ccccc1 [benzene]
[2]
Settings | mass density [kg/m3] | viscosity [mPa·s]
298.15 K | 873.57 | 0.601
303.15 K | 868.24 | 0.562
313.15 K | 857.34 | 0.493
323.15 K | 846.59 | 0.436
333.15 K | 835.75 | 0.389
343.15 K | 824.98 | 0.354

Cc1ccccc1 [toluene]
[2]
Settings | mass density [kg/m3] | viscosity [mPa·s]
298.15 K | 861.65 | 0.553
303.15 K | 857.01 | 0.522
313.15 K | 847.63 | 0.467
323.15 K | 838.23 | 0.421
333.15 K | 828.71 | 0.381
343.15 K | 819.86 | 0.349
353.15 K | 809.68 | 0.321

From the NIST ThermoML archive (doi:10.1021/je060475r)
